Test results reported in patent US20110250262A1, “METHOD FOR PRODUCING LIPOSOME AND METHOD FOR DISSOLVING CHOLESTEROL” (BIOMEDCORE, INC., priority 2008, published 2011).

Assay: Visual examination of dissolution of phospholipid and cholesterol in sucrose solution containing t-BuOH during cooling from 80° C.
Format: physicochemical
Conditions: cooled from 80° C.
Protocol: […] […] The solution was in the white opaque state at 80° C. Next, the temperature control of the water bath was off while still stirred, so that the solution was slowly cooled down at room temperature. It took about 90 min for the temperature of the water bath to be cooled from 80° C. to 35° C. The solution, which was in the white opaque state at 80° C., turned into a slightly pale transparent state around at 72° C., and the transparency persisted until the temperature fell to around 62° C. From around 62° C., the solution started to become white opaque again, turning into a completely white opaque state at 58° C. This change of state was reversible: the similar change of state was observed when the temperature was gradually raised from room temperature.
This state persisted until the temperature fell down to about 35° C., where the solution suddenly changed into a white opaque state.

[1] = 200 mg cholesterol with 380 mg DPPC in 20 mL 10 wt/vol % sucrose solution + 4.25 mL t-BuOH

Row | Compound | State of the aqueous solution (dissolution), DPPC alone (75.9 mg DPPC alone in 4 mL 10 wt/vol % sucrose solution + 0.85 mL t-BuOH) | State of the aqueous solution (dissolution), cholesterol alone (40 mg cholesterol alone in 4 mL 10 wt/vol % sucrose solution + 0.85 mL t-BuOH) | Lower temperature of the transparent (dissolved) state of the solution [1] | Upper temperature of the transparent (dissolved) state of the solution [1]
1 | CCCCCCCCCCCCCCCC(=O)OC[C@H](COP(=O)([O-])OCC[N+](C)(C)C)OC(=O)CCCCCCCCCCCCCCC [DPPC, L-α-dipalmitoylphosphatidylcholine] | transparent state between 80 °C and 50 °C | – | – | –
2 | CC(C)CCC[C@@H](C)[C@H]1CC[C@H]2[C@@H]3CC=C4C[C@@H](O)CC[C@]4(C)[C@H]3CC[C@]12C [cholesterol, Cholesterol] | – | the solution never became transparent at any temperature | around 62 °C | ~72 °C
